Here are results for 103 compounds from ChEMBL document CHEMBL3507680, “University of Dundee, Gates Library screen for HepG2 cell viability”.

This series can be described thus: Human HepG2 cell viability assay in 384 well format. The note with it: HepG2 cells, read-out: Inhibition. Type of series: toxicity, cell-based. Set-up: dose 125 nL, time 70.5 hour; concentration not given beside the values.
In the case of `CS(=O)(=O)NCCCN1CCCC1c1ccsc1` (stereo not drawn), the cytotoxicity at 70.5 h is -9.71%.

`Cc1cnn(CC(=O)N2CCCN(c3nc(C)cs3)CC2)c1`: the cytotoxicity at 70.5 h is 0.581%. The result for `O=C(CN1CCCCC1Cn1cncn1)NCCc1ccsc1` (stereo not drawn) reads 9.35%.

Consider `CCC(C)NC(=O)CS(=O)(=O)Cc1cc(Cl)c2c(c1)OCCCO2` (stereo not drawn), for which the cytotoxicity at 70.5 h is -5.29%. The result for `NC(=O)CS(=O)(=O)Cc1cc(Cl)c2c(c1)OCCCO2` reads 13.8%.

For the compound `COc1ccc(S(=O)(=O)NCc2cccnc2N(C)C)cc1`, the cytotoxicity at 70.5 h was -5%. The result for `CNC(=O)CS(=O)(=O)Cc1cc(Cl)c2c(c1)OCCO2` reads -4.61%; that for `CN(Cc1ccsc1)C(=O)Nc1ccc(N2CCCC2)nc1`, 0.563%. For `O=C(CN1CCC(c2ccnn2CCO)CC1)NCc1ccco1` the value was 11.2%; for `CNC(=O)c1ccc(S(=O)(=O)NCc2cccnc2N(C)C)cc1`, -6.39%. The result for `Cc1csc(N2CCN(C(=O)CCn3cccn3)CC2)n1` reads 3.65%; that for `Cc1cnn(CCC(=O)N2CCN(c3nccs3)CC2)c1`, 17.7%. Consider `CN(Cc1ccsc1)C(=O)Nc1ccc(N(C)C)nc1`, for which the cytotoxicity at 70.5 h is -2.83%.

Take `CCOc1ccnc(N2CCN(C(=O)c3c(CC)noc3C)CC2)n1`: the cytotoxicity at 70.5 h was -7.39%. For `CCOc1ccnc(N2CCN(C(=O)c3cn[nH]c3C)CC2)n1` the value was 13.7%. For `CC(C)c1nc(CN2CCCC2c2cnn(C)c2)cs1` (stereo not drawn) the value was -2.88%; for `CC(=O)N(C)c1nc(CN2CCCC2c2cnn(C)c2)cs1` (stereo not drawn), 1%; for `c1ccc(-n2ccc(CN3CCOC(Cn4cncn4)C3)n2)cc1` (stereo not drawn), -8.56%. The result for `c1ccc(-c2ccc(CN3CCOC(Cn4cncn4)C3)cc2)cc1` (stereo not drawn) reads 22%. With `Cn1cc(C2CCCN2Cc2csc(C3CCCC3)n2)cn1` (stereo not drawn), the cytotoxicity at 70.5 h turned out to be 0.499%. As for `Cc1cnn(CC2CN(Cc3ccc(-n4cccn4)cc3)CCO2)c1` (stereo not drawn), the cytotoxicity at 70.5 h was -0.9%.

With `Cn1cc(-c2nc(CN3CCCCC3Cn3cncn3)cs2)cn1` (stereo not drawn), the cytotoxicity at 70.5 h came to 19.3%. In the case of `CS(=O)(=O)NCCN1CCCC1c1noc(C2CC2)n1` (stereo not drawn), the cytotoxicity at 70.5 h was found to be 19.5%.

For the compound `Cc1n[nH]c(C2CN(Cc3nnc(C4CCC4)o3)CCO2)n1` (stereo not drawn), the cytotoxicity at 70.5 h is -1.02%. Consider `CCc1nnc(CN2CCOC(Cn3cccn3)C2)o1` (stereo not drawn), for which the cytotoxicity at 70.5 h is -8.14%. For `c1ccc(Cc2nc(CN3CCCC3Cn3cncn3)cs2)cc1` (stereo not drawn) the value was -7.1%; for `Cc1cnn(CC2CCCCN2Cc2nnsc2Cl)c1` (stereo not drawn), -7.35%. The result for `CS(=O)(=O)c1ccc(CNC(=O)N2CCC(C(N)=O)CC2)cc1` reads -2.35%.

In the case of `CCOc1ncccc1NC(=O)NCC(O)c1ccc(OC)cc1` (stereo not drawn), the cytotoxicity at 70.5 h turned out to be 19.2%. The result for `CC(NC(=O)NCCCc1n[nH]c(N)c1C#N)c1ccc(Cl)cc1` (stereo not drawn) reads -0.0754%; that for `O=C(NCCOc1ccc2c(c1)OCO2)C1CC(=O)N(CC2CC2)C1` (stereo not drawn), 1.74%. The result for `CNS(=O)(=O)c1ccc(C(=O)N2CCCC2Cc2ccccc2)o1` (stereo not drawn) reads 1.08%; that for `O=C(NCCOc1cccc(Cl)c1)C1CC(=O)N(CC2CC2)C1` (stereo not drawn), 40.6%; that for `CC(NC(=O)NCC1(N2CCCCC2)CCCCC1)c1nncn1C` (stereo not drawn), -20.6%. The result for `CN(C)S(=O)(=O)c1ccc(CN2CCCC2c2ccccc2)o1` (stereo not drawn) reads 32.6%; that for `CCc1ccc(S(=O)(=O)Nc2cc(OC)c(OC)cc2C(=O)O)s1`, 4.71%; that for `CC(NC(=O)NCC1(c2ccccc2)CCC1)c1nncn1C` (stereo not drawn), -16.7%.

Consider `O=C(COC(=O)Cc1cccs1)NCc1cccc(NC(=O)C2CC2)c1`, for which the cytotoxicity at 70.5 h was -10.5%. For `CCn1cc(NC(=O)C2CCN(CCOC(C)C)CC2)cn1` the value was -1.36%; for `CNS(=O)(=O)c1ccc(C(=O)N2CCCC2c2ccccc2)o1` (stereo not drawn), -14.1%; for `O=C(c1csc(-c2cccs2)n1)N1CCCC1Cn1cccn1` (stereo not drawn), -18.2%. For `Cc1cc(NC(=O)CN(C)C2CCCN(c3cccnn3)C2)n(C)n1` (stereo not drawn), the cytotoxicity at 70.5 h was -4.81%. For `c1ncn(CC2CN(Cc3csc(C4CCCC4)n3)CCO2)n1` (stereo not drawn) the value was -7.39%; for `c1csc(-c2nc(CN3CCOC(Cn4cncn4)C3)cs2)c1` (stereo not drawn), -26.8%; for `COCCNC(=O)NCc1ccc(OC(C)C)c(F)c1`, -10.4%. The result for `Cc1cn2c(n1)CCC(NC(=O)CCn1ccnn1)C2` (stereo not drawn) reads -8.67%; that for `CCOc1cc(C(=O)N2CCCC(c3noc(C)n3)C2)ccn1` (stereo not drawn), -12.6%; that for `CN(C)CC1CN(c2ccc(C#N)cn2)CCO1` (stereo not drawn), -10.1%. For `CCN1CCOC(CNCc2ccccn2)C1` (stereo not drawn) the value was -7.88%.

For the compound `CN(C)S(=O)(=O)c1ccc(CN2CCCC2c2ccc[nH]2)o1` (stereo not drawn), the cytotoxicity at 70.5 h was -5.46%.

As for `CCCc1n[nH]c(C2CN(C(=O)C3=COCCC3)CCO2)n1` (stereo not drawn), the cytotoxicity at 70.5 h was -16.3%.

On to `CCc1nc2n(n1)CC(NCc1ccnc(-c3ccccc3)n1)CC2` (stereo not drawn), for which the cytotoxicity at 70.5 h was -10%. For `Cc1cccc(OCCNC(=O)CN2CCCC2Cn2cccn2)c1` (stereo not drawn) the value was -15.8%; for `CNS(=O)(=O)c1ccc(C(=O)N2CCCC2c2cnn(C)c2)o1` (stereo not drawn), 23%; for `CNC(=O)CCCNCc1c(C(C)C)nn(C)c1N(C)C`, 14.4%. For `CC(C)c1nc(C2CCCN2C(=O)c2ccc(N(C)C)nn2)no1` (stereo not drawn) the value was 7.67%. Regarding `CN(CCc1ccccn1)S(=O)(=O)N1CCCC1c1ccco1` (stereo not drawn), the cytotoxicity at 70.5 h is -10.8%. For `COc1cccc(CCNC(=O)CN2CCN(C)CC2C)c1` (stereo not drawn) the value was -17.1%. For `CC(NC(=O)NCCCO)c1ccc2c(c1)OCCO2` (stereo not drawn) the value was -10.1%; for `CN(Cc1ccsc1)C(=O)c1cc2c([nH]c1=O)CCCC2=O`, -12.8%. For `CN1CCC(NC(=O)NCCNc2ccccn2)CC1` the value was -13.1%. Turning to `CC(N(C)Cc1nc2c(cnn2C)c(=O)[nH]1)C(C)(C)C` (stereo not drawn), the cytotoxicity at 70.5 h came out at 21%. The result for `COCCCNC(=O)CN(C)C(=O)c1cc(C)sc1C` reads -14%.

With `CN(CC(=O)N1CCN(c2ccccc2F)CC1)c1cnccn1`, the cytotoxicity at 70.5 h was -18.2%. As to `CS(=O)(=O)NC1CCN(C(=O)NCCc2ccccc2F)CC1`, the cytotoxicity at 70.5 h was -5.64%. The result for `COc1ccccc1OCCN1CCC(N2CCNC2=O)CC1` reads 19.7%; that for `Cn1ccnc1CN1CCN(Cc2cc(C#N)ccc2F)CC1`, -11.4%; that for `COc1cccc(OCCNC(=O)CN2CCN(C)CC2C)c1` (stereo not drawn), -13.4%. For `Cc1cnn(CCNCc2ccccc2C#N)c1` the value was 13.2%; for `CC(NC(N)=O)C(=O)N(C)CCCc1cc(-c2ccccc2)no1` (stereo not drawn), -21.7%. The result for `CC(C)c1nc(C2CCCN2C(=O)c2nccnc2N)no1` (stereo not drawn) reads -7.76%; that for `CN(C)C(CNC(=O)c1cc2c([nH]c1=O)CCCC2=O)c1ccsc1` (stereo not drawn), -2.41%. As for `CCOc1ncccc1NC(=O)N1CCCCCC1`, the cytotoxicity at 70.5 h is -13.8%. For `CC(c1nc(C2CC2)no1)N1CCN(CCOCC(F)(F)F)CC1` (stereo not drawn) the value was -8.3%; for `Cc1csc(N2CCN(CC(=O)Nc3nncs3)CC2C)n1` (stereo not drawn), -10%. The result for `O=C(c1cnccn1)N1CCN(Cc2csc(-c3ccccc3)n2)CC1` reads 10.5%; that for `CN(CCn1cccn1)S(=O)(=O)N1CCCC1c1ccco1` (stereo not drawn), -17%. Take `CCOc1ncccc1NC(=O)N1CCc2ccccc2C1`: the cytotoxicity at 70.5 h was -12%. For `Cc1noc(C)c1C(=O)NCC(C)N(C)C` (stereo not drawn) the value was 4.18%; for `CC(=O)N1CCC(CN2CCN(Cc3nccn3C)C(C)C2)CC1` (stereo not drawn), 2.21%. For `COc1ccc(C)cc1CN1CCCC1c1noc(C2CC2)n1` (stereo not drawn) the value was -1.93%. Regarding `O=C(CCn1cccn1)N1CCN(CC(F)F)CC1`, the cytotoxicity at 70.5 h was -1.77%. The result for `CC(=O)N(Cc1ncc(C(C)C)o1)C1CCN(Cc2ncc[nH]2)C1` (stereo not drawn) reads 0.135%; that for `CCC(=O)N1CCN(C(=O)CCn2cccn2)CC1`, -7.9%; that for `c1ccc2sc(CN3CCCC3c3noc(C4CC4)n3)nc2c1` (stereo not drawn), 4.52%. The result for `c1ccc2c(N3CCCC3Cn3cccn3)ncnc2c1` (stereo not drawn) reads 4.1%; that for `Cc1ccsc1C(=O)NCCCn1nc2ccccn2c1=O`, -4.38%. The result for `CNC(=O)C1CCN(C(=O)c2ccn(-c3ccc(F)cc3)n2)CC1` reads -15%; that for `CC(=O)NCCNC(=O)c1sc(-c2ccc(C)cc2C)nc1C`, 0.801%; that for `Cc1nc(-c2ccc(Cl)s2)sc1C(=O)NCCS(N)(=O)=O`, -13.2%. Regarding `CN(C)Cc1nc(C(C)(C)NC(=O)C2CC(=O)N(CC3CC3)C2)no1` (stereo not drawn), the cytotoxicity at 70.5 h stood at 19.5%.

In the case of `CCCc1nc(C(C)(C)NC(=O)C2CC(=O)N(CC3CC3)C2)no1` (stereo not drawn), the cytotoxicity at 70.5 h was -6.06%. For `CN1CCCN(C(=O)NCc2csc(Br)c2)CC1` the value was -6.63%. The result for `CN(C)C1CCN(C(=O)c2ccc(Cn3ccccc3=O)o2)CC1` reads 1.64%. For `COc1c(CNC2CCCc3ccccc32)c(C(C)C)nn1C` (stereo not drawn) the value was 9.34%; for `Cc1ncc2c(n1)CN(Cc1nnc(-c3occc3C)o1)CC2`, 4.24%. In the case of `Cc1ccc(-c2nnc(CN3CCc4cnc(C)nc4C3)o2)cc1`, the cytotoxicity at 70.5 h is 3.5%.

As to `CC1CN(CC(=O)Nc2nncs2)CCN1Cc1nccn1C` (stereo not drawn), the cytotoxicity at 70.5 h is -4.59%. For the compound `CCOc1cc(C)nc(N2CCN(C(=O)c3ccnn3C)CC2)n1`, the cytotoxicity at 70.5 h was -3.99%. For `c1cnn(CC2CCCN2c2ncnc3sccc23)c1` (stereo not drawn), the cytotoxicity at 70.5 h was 31.2%. The result for `c1ccc(-c2noc(CNC3CCc4ncnn4C3)n2)nc1` (stereo not drawn) reads -4.56%; that for `CC(C)c1nn(C)c(N(C)C)c1CNCCC(=O)N(C)C`, -2.45%; that for `CC(C)c1nn(C)c(Cl)c1CNC1CCOc2ccccc21` (stereo not drawn), -2.92%.
